The source of these data is ChEMBL document CHEMBL5143633, “Isolation, Structure Determination, and Semisynthesis of Diphenazine Compounds from a Deep-Sea-Derived Strain of the Fungus Cystobasidium laryngis and Their Biological Activities” (J Nat Prod, 2022).

The subject of one series is NUGC-3. The series is described as follows: Cytotoxicity against human NUGC-3 cells assessed as cell growth inhibition incubated for 48 hrs by SRB method. The class given is functional, cell-based. The conditions noted are these: NUGC-3, 48 h.
The next series deals with HCT-15. Nature of the series: Cytotoxicity against human HCT-15 cells assessed as cell growth inhibition incubated for 48 hrs by SRB method. The class given is functional, cell-based. The conditions noted are these: HCT-15, 48 h. In general terms: In SRB staining, fixed cells bind dye roughly in proportion to their protein.
A further series has as its system PC-3. The series is described as follows: Cytotoxicity against human PC-3 cells assessed as cell growth inhibition incubated for 48 hrs by SRB method. Format: functional, cell-based. The following applies: PC-3, 48 h.
The test system of a further series is NCI-H23. Nature of the series: Cytotoxicity against human NCI-H23 cells assessed as cell growth inhibition incubated for 48 hrs by SRB method. The following applies: NCI-H23, 48 h. Format: functional, cell-based.
The next series concerns ACHN. The series is described as follows: Cytotoxicity against human ACHN cells assessed as cell growth inhibition incubated for 48 hrs by SRB method. Format: functional, cell-based.
The subject of another series is MDA-MB-231. Nature of the series: Cytotoxicity against human MDA-MB-231 cells assessed as cell growth inhibition incubated for 48 hrs by SRB method. Format: functional, cell-based. The following applies: MDA-MB-231, 48 h.
Series [1] concerns BV-2. The series is described as follows: Anti-neuroinflammatory activity in mouse BV-2 cells assessed as inhibition of LPS-induced NO production pretreated for 1 hr followed by LPS addition measured after 24 hrs by Griess reagent based assay. The class given is functional, cell-based.
For series [2], the system named is BV-2. The series is described as follows: Cytotoxicity against LPS induced mouse BV-2 cells assessed as reduction in cell viability at >1 uM pretreated for 1 hr followed by LPS addition measured after 24 hrs by MTT assay. The class given is toxicity, cell-based. The following applies: bv-2, 25 h. (In general: Formazan colour is commonly taken as a measure of viable cells.)

Molecules are shown by their SMILES. Counter-ions that a name gives are not always drawn.

For the compound `CC(=O)c1cccc2nc3c(C(=O)O[C@H](C)c4cccc5nc6c(C(=O)O)cccc6nc45)cccc3nc12`, the half-inhibitory concentration (IC50) in the series with NUGC-3 turned out to be 0.035 µM; in the series with HCT-15, 0.06 µM; with PC-3, 0.047 µM; with NCI-H23 it was 0.043 µM; in the series with ACHN, 0.072 µM; with MDA-MB-231, 0.052 µM.
Regarding `C[C@@H](c1cccc2nc3c(C(=O)O)cccc3nc12)c1ccc(C(=O)O)c2nc3cccc([C@@H](C)O)c3nc12`, the IC50 with NUGC-3, with HCT-15, with PC-3, with NCI-H23, in the series on ACHN and in the series on MDA-MB-231 was over 10 µM throughout. In addition, the IC50 in the series on BV-2 [1] amounted to 90 µM.
`C[C@@H](c1cc(C(=O)O)c2nc3cccc([C@@H](C)O)c3nc2c1)c1cccc2nc3c(C(=O)O)cccc3nc12`: the 50% inhibitory concentration (IC50) with NUGC-3, with HCT-15, with PC-3, in the series on NCI-H23, in the series on ACHN and in the series on MDA-MB-231 was over 10 µM in each case.
As for `C[C@@H](OC(=O)c1ccccc1N)c1cccc2nc3c(C(=O)O)cccc3nc12`, the IC50 with NUGC-3, with HCT-15, in the series with PC-3, in the series with NCI-H23, in the series with ACHN and in the series on MDA-MB-231 was over 10 µM throughout.
On to `CC(=O)c1cccc2nc3c(C(=O)O)ccc([C@H](C)c4cccc5nc6c(C(=O)O)cccc6nc45)c3nc12`, for which the half-inhibitory concentration (IC50) in the series with NUGC-3, in the series on HCT-15, in the series on PC-3, with NCI-H23, in the series with ACHN and with MDA-MB-231 was over 10 µM each time. Further, the IC50 in the series on BV-2 [1] turned out to be 35 µM.
As for `C[C@@H](O)c1cccc2nc3c(C(=O)O)cccc3nc12`, the half-maximal inhibitory concentration (IC50) in the series on NUGC-3, with HCT-15, in the series with PC-3, with NCI-H23, in the series with ACHN and with MDA-MB-231 was over 10 µM throughout. Besides, the IC50 in the series with BV-2 [1] was 16 µM.
As to `C[C@@H](O)c1cccc2nc3c(C(=O)O[C@H](C)c4cccc5nc6c(C(=O)O)cccc6nc45)cccc3nc12`, the IC50 with NUGC-3 stood at 0.0077 µM; in the series with HCT-15, 0.01 µM; in the series on PC-3 it was 0.01 µM; in the series with NCI-H23, 0.01 µM; with ACHN it was 0.014 µM; in the series on MDA-MB-231, 0.01 µM. Further, the IC50 in the series with BV-2 [1] was 0.3 µM. Also, in the series with BV-2 [2], the Activity result is “Toxic”.
On to `C[C@H](c1cc([C@@H](C)O)c2nc3cccc(C(=O)O)c3nc2c1)c1cccc2nc3c(C(=O)O)cccc3nc12`, for which the IC50 in the series with NUGC-3, in the series with HCT-15, in the series with PC-3, in the series with NCI-H23, in the series with ACHN and in the series on MDA-MB-231 was over 10 µM throughout.
Take `COc1cccc2c1C(=O)c1c(O)c3c(c(O)c1C2=O)C[C@@](O)(C(=O)CO)C[C@@H]3O[C@H]1C[C@H](N)[C@H](O)[C@H](C)O1` [DOXORUBICIN HYDROCHLORIDE]: the IC50 in the series on NUGC-3 turned out to be 0.15 µM; with HCT-15, 0.17 µM; in the series on NCI-H23, 0.16 µM; in the series on ACHN it was 0.17 µM; with MDA-MB-231, 0.15 µM.
`C[C@H](c1cccc2nc3c(C(=O)O)cccc3nc12)c1ccc(C(=O)O)c2nc3cccc([C@@H](C)O)c3nc12`: the IC50 in the series on NUGC-3, with HCT-15, in the series on PC-3, in the series on NCI-H23, in the series on ACHN and with MDA-MB-231 was over 10 µM throughout. Moreover, the IC50 in the series on BV-2 [1] was found to be 170 µM.

By IC50 is commonly meant the concentration that gives 50% inhibition.
